Counter-ions that a name gives are not always drawn. Like-named read-outs stand apart in the source and are kept apart here.
What was measured:
5-HT uptake = target: T1, 5-HT uptake (Rattus norvegicus, UniProt P31652); assay: 5-HT uptake assay; type: biochemical; conditions: rat brain synaptosomes
T1 construct: [^3H]5-HT incorporation into rat brain synaptosomes; from tissue; host or cells: rat brain synaptosomes
Protocol: (§1) This analysis was performed using validated proprietary software.

NMDA = NMDA (Rattus norvegicus, UniProt P35439)
Excerpt: The specific ligand binding to the receptors was defined as the difference between the total binding and the nonspecific binding determined in the presence of an excess of unlabelled ligand. The results were expressed as a percent of control specific binding ((measured specific binding/control specific binding)×100) and as a percent inhibition of control specific binding (100-((measured specific binding/control specific binding)×100)) obtained in the presence of the test compounds. The IC50 values (concentration causing a half-maximal inhibition of control specific binding) and Hill coefficients (nH) were determined by non-linear regression analysis of the competition curves generated with mean replicate values using Hill equation curve fitting (Y=D+[(A−D)/(1+(C/C50)^nH)], where Y=specific binding, D=minimum specific binding, A=maximum specific binding, C=compound concentration, C50=IC50, and nH=slope factor). This analysis was performed using validated proprietary software. The inhibition constants (Ki) were calculated using the Cheng Prusoff equation Ki=IC50/(1+(L/KD)), where L=concentration of radioligand in the assay, and KD=affinity of the radioligand for the receptor). A scatchard plot was used to determine the Kd.

norepinephrine uptake = target: T2, norepinephrine uptake (Rattus norvegicus, UniProt Q63380); assay: norepinephrine uptake assay; type: biochemical; conditions: rat hypothalamus synaptosomes
T2 construct: [^3H]NE incorporation into rat hypothalamus synaptomsomes; from tissue; host or cells: rat hypothalamus synaptosomes
T2 sequence (Q63380 1-617): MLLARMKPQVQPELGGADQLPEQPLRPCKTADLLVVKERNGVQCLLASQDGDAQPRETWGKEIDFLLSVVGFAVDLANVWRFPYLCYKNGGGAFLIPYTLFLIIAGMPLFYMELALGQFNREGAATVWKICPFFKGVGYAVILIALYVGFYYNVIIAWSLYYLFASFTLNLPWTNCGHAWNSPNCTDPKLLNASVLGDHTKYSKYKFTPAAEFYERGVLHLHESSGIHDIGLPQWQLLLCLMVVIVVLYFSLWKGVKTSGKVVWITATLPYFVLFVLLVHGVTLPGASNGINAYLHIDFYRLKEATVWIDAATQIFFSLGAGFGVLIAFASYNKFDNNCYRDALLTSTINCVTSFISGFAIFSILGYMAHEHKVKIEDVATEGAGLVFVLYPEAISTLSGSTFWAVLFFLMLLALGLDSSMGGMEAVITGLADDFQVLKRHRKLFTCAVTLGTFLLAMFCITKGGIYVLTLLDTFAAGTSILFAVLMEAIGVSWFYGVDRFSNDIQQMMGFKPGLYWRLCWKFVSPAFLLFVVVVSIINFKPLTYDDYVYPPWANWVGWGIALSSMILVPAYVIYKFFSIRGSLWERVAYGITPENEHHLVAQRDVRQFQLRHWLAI
Protocol: as §1

[1] = system: thermal nociception (hot-plate test); assay: 53° C. hot-plate test of thermal nociception; type: in vivo, rat; conditions: compared with morphine
Protocol: Methods: Male Sprague-Dawley rats (200-300 grams) were used. Antinociceptive activity was determined by the 53° C. hot-plate test. The rat is placed on a metal plate heated to 53° C., and the latency to withdrawing or shaking or licking of a paw, or escape attempts by jumping were documented. A cut-off latency of 15 sec was employed. Drugs were prepared administered after baseline measurements were performed. Behavioral testing was performed 30, 45 and 60 minutes after dosing. The levorphanol data for were compared to historical morphine data. […] Dose-response curves along with A50 values (i.e., dose calculated to produce a 50% MPE) and confidence intervals were determined from linear regression analysis of the log dose-effect curves. Significant differences in potency between 2 dose-response curves were determined by applying the Student's t-statistic to variances of the A50 values obtained for each dose-response curve. The antinociceptive effect of levorphanol was determined in the 53° C. rat hot-plate test 30, 45 and 60 minutes after dosing. Hot-plate latencies for each time-point were compared to the mean baseline response by ANOVA followed by the post-hoc Fisher's Least Significant Difference test.

[2] = system: thermal nociception (tail flick test); assay: Tail flick test of thermal nociception; type: in vivo, rat; conditions: compared with morphine
Protocol: Objective: To evaluate the efficacy and potency of levorphanol and to compare its potency relative to that of morphine in a model of thermal nociception (tail flick test).
Methods: Male Sprague-Dawley rats (200-300 grams) were used. Antinociceptive activity was determined by a significant increase in the latency to a reflexive flicking of the tail away from a radiant heat (infrared) source projected onto a small area on the ventral aspect of the tail. Baseline tail flick latencies were determined prior to any drug administration. The antinociceptive effect of levorphanol was determined 30, 45 and 60 minutes after dosing. […] Tail flick latencies for each time-point were compared to the mean baseline response by ANOVA followed by the post-hoc Fisher's Least Significant Difference test. A significant increase from the baseline was considered antinociceptive. […] Dose-response curves along with A50 values (i.e., dose calculated to produce a 50% MPE) and confidence intervals were determined from linear regression analysis of the log dose-effect curves. Significant differences in potency between 2 dose-response curves were determined by applying the Student's t-statistic to variances of the A50 values obtained for each dose-response curve.

[3] = system: serotonin reuptake and norepinephrine reuptake in rat brain synaptosomes; assay: norepinephrine and serotonin reuptake inhibition in rat brain synaptosomes; type: biochemical
[4] = cited from earlier work; for plasma half life: American Pain Society 2008; for half-life of oral levorphanol: Dixon et al 1983
[5] = published pharmacokinetics of oral levorphanol (prescribing information, American Pain Society, Dixon et al)
[6] = American Pain Society 2008, cited from earlier work
[7] = IC50, expressed as levorphanol base
[8] = IC50, expressed as levorphanol tartrate

T1 sequence (P31652 whole entry): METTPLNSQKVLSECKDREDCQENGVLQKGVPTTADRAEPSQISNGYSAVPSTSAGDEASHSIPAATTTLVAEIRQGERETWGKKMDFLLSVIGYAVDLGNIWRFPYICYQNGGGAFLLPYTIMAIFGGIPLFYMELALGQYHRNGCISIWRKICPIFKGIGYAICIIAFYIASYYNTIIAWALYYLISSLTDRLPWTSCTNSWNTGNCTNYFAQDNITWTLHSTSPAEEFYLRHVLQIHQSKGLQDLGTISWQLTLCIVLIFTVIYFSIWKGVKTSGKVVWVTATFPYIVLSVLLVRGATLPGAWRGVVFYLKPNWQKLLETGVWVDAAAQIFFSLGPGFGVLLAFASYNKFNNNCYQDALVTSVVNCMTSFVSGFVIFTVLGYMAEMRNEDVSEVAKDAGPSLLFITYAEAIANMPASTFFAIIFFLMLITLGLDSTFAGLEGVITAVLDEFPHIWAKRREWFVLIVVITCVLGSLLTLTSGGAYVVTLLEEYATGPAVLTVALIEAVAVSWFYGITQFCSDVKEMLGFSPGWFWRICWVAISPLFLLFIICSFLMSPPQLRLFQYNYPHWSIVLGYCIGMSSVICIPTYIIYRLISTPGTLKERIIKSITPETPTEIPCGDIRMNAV

SMILES	IC50 (5-HT uptake; [7])	IC50 (5-HT uptake; [8])	inhibition (NMDA)	IC50 (norepinephrine uptake; [7])	IC50 (norepinephrine uptake; [8])	duration of analgesic action [1]	duration of analgesic action [2]	selectivity for serotonin reuptake inhibition over norepinephrine reuptake inhibition [3]	plasma half life [4]	plasma half life ([4]; after 1 week of dosing)	half-life of oral levorphanol ([4]; one patient)	half-life of oral levorphanol ([4]; second patient)	mean time to steady state ([5]; using the average of the two reported values)	time to reach steady state therapeutic concentration upon repeated dosing ([5]; using the higher reported 30 hour half-life)	time to reach steady state therapeutic concentration upon repeated dosing ([5]; using the lower reported 16 hour half-life)	dose equianalgesic to oral morphine sulfate 30 mg ([6]; acute pain)	dose equianalgesic to oral morphine sulfate 30 mg ([6]; chronic pain)
CN1CC[C@]23CCCC[C@H]2[C@H]1Cc1ccc(O)cc13 [Levorphanol Tartrate, morphinan-3-ol, 17-methyl-, [R—(R*,R*)]-2,3-dihydroxybutane-dioate (1:1) (salt) dihydrate]	30.2 nM	52 nM	91%	1220 nM	2100 nM												
CN1CC[C@]23CCCC[C@H]2[C@H]1Cc1ccc(O)cc13 [levorphanol, l 3-hydroxy-N-methylmorphinan]						shorter than that of morphine	shorter than that of morphine	approximately 40 fold	12 to 16 h	90 to 120 h	approximately 16 hours	30 h	115 h	150 h	80 h	4 mg	1 mg

Source: patent US20120065221A1, “Extended Release Oral Pharmaceutical Compositions of 3-Hydroxy-N-Methylmorphinan and Method of Use” (priority 2009, published 2012)
